The nature of data set [1]: Cytotoxicity against human SH-SY5Y cells assessed as cell viability after 24 hrs by MTT assay. It counts as cell-based. Conditions: read-out: Activity. (Formazan colour is commonly taken as a measure of viable cells.)
The test system of data set [2] is SH-SY5Y. Description: Cytotoxicity against human SH-SY5Y cells assessed as cell viability after 24 hrs by LDH release assay. It counts as cell-based. Background: LDH in the medium is a marker of cell lysis.

In the case of `CCOc1ccc(Nc2ccc(/C(=C3C=C/C(=[N+](/CC)Cc4cccc(S(=O)(=O)[O-])c4)C=C/3C)c3ccc(N(CC)Cc4cccc(S(=O)(=O)[O-])c4)cc3C)cc2)cc1.[Na+]` [BRILLIANT BLUE G], the viability at 24 h in data set [1] is 19%. Besides, the Activity entry in data set [2] is given as “Toxic”.
Take `CCOc1ccc(Nc2ccc(C(=C3C=CC(=[N+](CC)Cc4cccc(S(=O)(=O)[O-])c4)C=C3)c3ccc(N(CC)Cc4cccc(S(=O)(=O)[O-])c4)cc3)cc2)cc1.[Na+]`: the viability at 24 h in data set [1] came out at 99%. The Activity entry in data set [2] is listed as “Non-Toxic”.

(Values after ChEMBL document CHEMBL4251568, “A routinely used protein staining dye acts as an inhibitor of wild type and mutant alpha-synuclein aggregation and modulator of neurotoxicity” (Eur J Med Chem, 2018).)
